Measurements as given in PubChem BioAssay (NCI).
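Exposure lasted 48 hours, with cells grown in 96-well plates and compounds tested at five concentrations. Definition used: TGI = concentration required for complete inhibition of growth.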

Columns and labels:
Test in all cases: NCI-60 cell line screen, 48 h
SK-MEL-5 melanoma = test system: SK-MEL-5 melanoma
OVCAR-3 ovarian = test system: OVCAR-3 ovarian
MOLT-4 leukemia = test system: MOLT-4 leukemia
RXF 393 renal = test system: RXF 393 renal
SNB-75 CNS = test system: SNB-75 CNS
SR leukemia = test system: SR leukemia
OVCAR-5 ovarian = test system: OVCAR-5 ovarian
CAKI-1 renal = test system: CAKI-1 renal
SK-OV-3 ovarian = test system: SK-OV-3 ovarian
LOX IMVI melanoma = test system: LOX IMVI melanoma
ACHN renal = test system: ACHN renal
COLO 205 colon = test system: COLO 205 colon
MDA-N = test system: MDA-N
MDA-MB-231 breast = test system: MDA-MB-231 breast
SK-MEL-2 melanoma = test system: SK-MEL-2 melanoma
OVCAR-4 ovarian = test system: OVCAR-4 ovarian
HOP-92 NSCLC = test system: HOP-92 NSCLC
HCT-15 colon = test system: HCT-15 colon
UACC-257 melanoma = test system: UACC-257 melanoma
NCI/ADR-RES ovarian = test system: NCI/ADR-RES ovarian
SF-539 CNS = test system: SF-539 CNS
EKVX NSCLC = test system: EKVX NSCLC
HS 578T breast = test system: HS 578T breast
MDA-MB-435 = test system: MDA-MB-435
SF-295 CNS = test system: SF-295 CNS
MALME-3M melanoma = test system: MALME-3M melanoma
A549 NSCLC = test system: A549 NSCLC
SW-620 colon = test system: SW-620 colon
M14 melanoma = test system: M14 melanoma
NCI-H522 lung = test system: NCI-H522 lung
CCRF-CEM leukemia = test system: CCRF-CEM leukemia
HL-60(TB) leukemia = test system: HL-60(TB) leukemia
SNB-19 CNS = test system: SNB-19 CNS
NCI-H460 lung = test system: NCI-H460 lung
BT-549 breast = test system: BT-549 breast
HT29 colon = test system: HT29 colon
SF-268 CNS = test system: SF-268 CNS
NCI-H226 lung = test system: NCI-H226 lung
NCI-H23 lung = test system: NCI-H23 lung
HOP-62 NSCLC = test system: HOP-62 NSCLC
HCC-2998 colon = test system: HCC-2998 colon
U251 CNS = test system: U251 CNS
DU-145 prostate = test system: DU-145 prostate
A498 renal = test system: A498 renal
SK-MEL-28 melanoma = test system: SK-MEL-28 melanoma
MCF7 breast = test system: MCF7 breast
HCT-116 colon = test system: HCT-116 colon
OVCAR-8 ovarian = test system: OVCAR-8 ovarian
T-47D breast = test system: T-47D breast
TK-10 renal = test system: TK-10 renal
K-562 leukemia = test system: K-562 leukemia
KM12 colon = test system: KM12 colon
UO-31 renal = test system: UO-31 renal
PC-3 prostate = test system: PC-3 prostate
UACC-62 melanoma = test system: UACC-62 melanoma
786-0 renal = test system: 786-0 renal
SN12C renal = test system: SN12C renal
IGROV1 ovarian = test system: IGROV1 ovarian
RPMI-8226 leukemia = test system: RPMI-8226 leukemia

COc1cccc2c1-c1ccccc1[C@H](Nc1ccccc1)[C@@]2(C)O
TGI (SK-MEL-5 melanoma): 14.1 µM | TGI (OVCAR-3 ovarian): 7.85 µM | TGI (MOLT-4 leukemia): > 100 µM | TGI (RXF 393 renal): 11 µM | TGI (SNB-75 CNS): 6.85 µM | TGI (SR leukemia): 22.9 µM | TGI (OVCAR-5 ovarian): 28.2 µM | TGI (CAKI-1 renal): 17.5 µM | TGI (SK-OV-3 ovarian): 21.3 µM | TGI (LOX IMVI melanoma): 28 µM | TGI (ACHN renal): 21.6 µM | TGI (COLO 205 colon): 10.4 µM | TGI (MDA-N): 5.25 µM | TGI (MDA-MB-231 breast): 24.3 µM | TGI (SK-MEL-2 melanoma): 19.9 µM | TGI (OVCAR-4 ovarian): 25.7 µM | TGI (HOP-92 NSCLC): 26 µM | TGI (HCT-15 colon): 18.9 µM | TGI (UACC-257 melanoma): 19.7 µM | TGI (NCI/ADR-RES ovarian): 15.2 µM | TGI (SF-539 CNS): 11.6 µM | TGI (EKVX NSCLC): 25.1 µM | TGI (HS 578T breast): 32 µM | TGI (MDA-MB-435): 6.14 µM | TGI (SF-295 CNS): 15.8 µM | TGI (MALME-3M melanoma): 22.1 µM | TGI (A549 NSCLC): 22.2 µM | TGI (SW-620 colon): 30 µM | TGI (M14 melanoma): 14.8 µM | TGI (NCI-H522 lung): 8.49 µM | TGI (CCRF-CEM leukemia): 50.9 µM | TGI (HL-60(TB) leukemia): 26.8 µM | TGI (SNB-19 CNS): 19.3 µM | TGI (NCI-H460 lung): 14 µM | TGI (BT-549 breast): 23.3 µM | TGI (HT29 colon): 14 µM | TGI (SF-268 CNS): 21.1 µM | TGI (NCI-H226 lung): 15.6 µM | TGI (NCI-H23 lung): 23.2 µM | TGI (HOP-62 NSCLC): 19 µM | TGI (HCC-2998 colon): 19.7 µM | TGI (U251 CNS): 16.3 µM | TGI (DU-145 prostate): 17.7 µM | TGI (A498 renal): 22 µM | TGI (SK-MEL-28 melanoma): 26.7 µM | TGI (MCF7 breast): 17.2 µM | TGI (HCT-116 colon): 15 µM | TGI (OVCAR-8 ovarian): 31 µM | TGI (T-47D breast): 30.2 µM | TGI (TK-10 renal): 22.1 µM | TGI (K-562 leukemia): > 100 µM | TGI (KM12 colon): 15.6 µM | TGI (UO-31 renal): 16.9 µM | TGI (PC-3 prostate): 19 µM | TGI (UACC-62 melanoma): 21.6 µM | TGI (786-0 renal): 20.2 µM | TGI (SN12C renal): 16.8 µM

C/C=C/[C@@H]1[C@H]2C(=O)[C@]3(Cl)[C@@H](/C=C/C)[C@@H]3C(=O)[C@@]12Cl
TGI (SK-MEL-5 melanoma): > 100 µM | TGI (OVCAR-3 ovarian): > 100 µM | TGI (MOLT-4 leukemia): > 100 µM | TGI (RXF 393 renal): > 100 µM | TGI (SNB-75 CNS): > 100 µM | TGI (SR leukemia): > 100 µM | TGI (OVCAR-5 ovarian): > 100 µM | TGI (CAKI-1 renal): > 100 µM | TGI (SK-OV-3 ovarian): > 100 µM | TGI (LOX IMVI melanoma): > 100 µM | TGI (ACHN renal): > 100 µM | TGI (COLO 205 colon): > 100 µM | TGI (MDA-N): > 100 µM | TGI (MDA-MB-231 breast): > 100 µM | TGI (SK-MEL-2 melanoma): > 100 µM | TGI (OVCAR-4 ovarian): > 100 µM | TGI (HOP-92 NSCLC): > 100 µM | TGI (HCT-15 colon): > 100 µM | TGI (UACC-257 melanoma): > 100 µM | TGI (NCI/ADR-RES ovarian): > 100 µM | TGI (SF-539 CNS): > 100 µM | TGI (EKVX NSCLC): > 100 µM | TGI (HS 578T breast): > 100 µM | TGI (MDA-MB-435): > 100 µM | TGI (SF-295 CNS): > 100 µM | TGI (MALME-3M melanoma): > 100 µM | TGI (A549 NSCLC): > 100 µM | TGI (SW-620 colon): > 100 µM | TGI (M14 melanoma): > 100 µM | TGI (NCI-H522 lung): > 100 µM | TGI (CCRF-CEM leukemia): > 100 µM | TGI (HL-60(TB) leukemia): > 100 µM | TGI (IGROV1 ovarian): > 100 µM | TGI (SNB-19 CNS): > 100 µM | TGI (NCI-H460 lung): > 100 µM | TGI (BT-549 breast): > 100 µM | TGI (HT29 colon): > 100 µM | TGI (SF-268 CNS): > 100 µM | TGI (NCI-H226 lung): > 100 µM | TGI (NCI-H23 lung): > 100 µM | TGI (HOP-62 NSCLC): > 100 µM | TGI (HCC-2998 colon): > 100 µM | TGI (U251 CNS): > 100 µM | TGI (DU-145 prostate): > 100 µM | TGI (A498 renal): > 100 µM | TGI (SK-MEL-28 melanoma): > 100 µM | TGI (MCF7 breast): > 100 µM | TGI (HCT-116 colon): > 100 µM | TGI (OVCAR-8 ovarian): > 100 µM | TGI (T-47D breast): > 100 µM | TGI (TK-10 renal): > 100 µM | TGI (K-562 leukemia): > 100 µM | TGI (KM12 colon): > 100 µM | TGI (UO-31 renal): > 100 µM | TGI (PC-3 prostate): > 100 µM | TGI (UACC-62 melanoma): > 100 µM | TGI (786-0 renal): > 100 µM | TGI (SN12C renal): > 100 µM

COc1ccc(C2N(c3ccc(F)c([N+](=O)[O-])c3)C(=O)N3C(c4ccc(OC)cc4)N(c4ccc(F)c([N+](=O)[O-])c4)C(=O)N23)cc1 (stereo not given)
TGI (SK-MEL-5 melanoma): > 100 µM | TGI (OVCAR-3 ovarian): > 100 µM | TGI (RXF 393 renal): > 100 µM | TGI (SNB-75 CNS): > 100 µM | TGI (SR leukemia): > 100 µM | TGI (OVCAR-5 ovarian): > 100 µM | TGI (CAKI-1 renal): > 100 µM | TGI (LOX IMVI melanoma): > 100 µM | TGI (ACHN renal): > 100 µM | TGI (COLO 205 colon): > 100 µM | TGI (MDA-N): > 100 µM | TGI (MDA-MB-231 breast): > 100 µM | TGI (SK-MEL-2 melanoma): > 100 µM | TGI (OVCAR-4 ovarian): > 100 µM | TGI (HOP-92 NSCLC): > 100 µM | TGI (HCT-15 colon): > 100 µM | TGI (UACC-257 melanoma): > 100 µM | TGI (NCI/ADR-RES ovarian): > 100 µM | TGI (SF-539 CNS): > 100 µM | TGI (EKVX NSCLC): > 100 µM | TGI (HS 578T breast): > 100 µM | TGI (MDA-MB-435): > 100 µM | TGI (SF-295 CNS): > 100 µM | TGI (MALME-3M melanoma): > 100 µM | TGI (A549 NSCLC): > 100 µM | TGI (SW-620 colon): > 100 µM | TGI (M14 melanoma): > 100 µM | TGI (NCI-H522 lung): > 100 µM | TGI (CCRF-CEM leukemia): > 100 µM | TGI (HL-60(TB) leukemia): > 100 µM | TGI (IGROV1 ovarian): > 100 µM | TGI (SNB-19 CNS): > 100 µM | TGI (NCI-H460 lung): > 100 µM | TGI (BT-549 breast): > 100 µM | TGI (HT29 colon): > 100 µM | TGI (SF-268 CNS): > 100 µM | TGI (NCI-H23 lung): > 100 µM | TGI (HOP-62 NSCLC): > 100 µM | TGI (HCC-2998 colon): > 100 µM | TGI (U251 CNS): > 100 µM | TGI (DU-145 prostate): > 100 µM | TGI (A498 renal): > 100 µM | TGI (SK-MEL-28 melanoma): > 100 µM | TGI (MCF7 breast): > 100 µM | TGI (HCT-116 colon): > 100 µM | TGI (OVCAR-8 ovarian): > 100 µM | TGI (RPMI-8226 leukemia): > 100 µM | TGI (T-47D breast): > 100 µM | TGI (TK-10 renal): > 100 µM | TGI (KM12 colon): > 100 µM | TGI (UO-31 renal): > 100 µM | TGI (PC-3 prostate): > 100 µM | TGI (UACC-62 melanoma): > 100 µM | TGI (786-0 renal): > 100 µM | TGI (SN12C renal): > 100 µM
